Assay results: patent US20160159861A1, “APJ Receptor Compounds” (priority 2013, published 2016)
Where two headings read alike, the source gives them in different places. Peptide text beside a SMILES is read from it.

What was measured:
[1] = biological target: T1, human APJ receptor (hAPJ) (Homo sapiens, UniProt P35414); experiment: HTRF cAMP assay: inhibition of NKH477-stimulated cAMP in HEK cells stably expressing hAPJ; format: cell-based; settings: for % IA (cAMP inhibition, hAPJ HEK): intrinsic activity; for Ranking: composite class of EC50 (hAPJ), % IA and % histamine or formal (+) charge; for Emax: HEK293, read-out: % IA, bound stated
T1 construct: expressed in transfected cells
T1 sequence (P35414 1-380): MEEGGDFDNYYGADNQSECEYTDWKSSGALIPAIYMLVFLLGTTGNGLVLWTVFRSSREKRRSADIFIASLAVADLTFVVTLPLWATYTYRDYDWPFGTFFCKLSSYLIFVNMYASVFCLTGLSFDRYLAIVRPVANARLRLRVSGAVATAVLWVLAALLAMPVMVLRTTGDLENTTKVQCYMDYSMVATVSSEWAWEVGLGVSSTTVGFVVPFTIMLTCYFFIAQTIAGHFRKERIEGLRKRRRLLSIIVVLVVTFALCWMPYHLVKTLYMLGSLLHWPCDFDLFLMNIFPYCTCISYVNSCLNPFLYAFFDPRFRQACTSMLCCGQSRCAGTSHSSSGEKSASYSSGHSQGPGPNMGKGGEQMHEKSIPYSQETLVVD
From the text: HTRF cAMP Assay and IP-One Assay (Cisbio)
HTRF (homogeneous time resolved fluorescence) is a technology developed by Cisbio Bioassays based on TR-FRET (time-resolved fluorescence resonance energy transfer). Cisbio Bioassays has developed a wide selection of HTRF-based assays compatible with whole cells, thereby enabling functional assays to run under more physiological conditions. The IP-One assays are competitive immunoassays using cryptate-labeled anti-IP1 monoclonal antibody and d2-labeled IP1. IP1 is a relatively stable downstream metabolite of IP3, and accumulates in cells following Gq receptor activation.
cAMP kits based on a competitive immunoassay using cryptate-labeled anti-cAMP antibody and d2-labeled cAMP were used to assay the effects of APJ compounds of the present invention. […] Cells are treated with 1 nG/mL doxycycline and seeded in all white 96 well plates @40 k/well overnight.

rat peritoneal cells = experiment: Ex vivo histamine release assay in rat peritoneal cells (vs. Compound 48/80); format: cell-based; settings: histamine release from rat peritoneal cells relative to Compound 48/80
From the text: More desirable pharmacological tolerability can include a decrease in an undesirable side effect (e.g., histamine release, an indicator of mast cell degranulation) without a significant loss in activity of the compound.
Screening of the variant G protein receptor compounds against a control compound for histamine release can be done following standard assays. The standard assay can include comparison to a control compound known to elicit a histamine response (e.g., 48/80 having CAS No. 94724-12-6). Such an assay using rat peritoneal cells is described herein for the APJ compounds.
Test compounds were assayed in the ex vivo histamine release assay using a 3-point dose response. Concentrations of total histamine contained in the cells is used to correct for variability in the numbers of mast cells in the lavage per well.
Resident peritoneal cells were harvested from naïve Sprague Dawley rats (male 200-300 gr, Charles River). Rats were euthanized by CO2 asphyxiation and a skin incision was made along the middle-line of the abdomen. Thirty milliliters of HBSS (HyClone, cat#SH 30268.01) containing 20 mM HEPES and 0.2% BSA (heretofore Assay Buffer) were injected intraperitoneally using a 30 mL syringe with the attached 18 gauge needle. The abdomen was gently lavaged for 1-2 min and 7-10 milliliters of the peritoneal lavage were carefully aspirated. Cell count in the peritoneal lavage was determined using Cellometer Auto T4 (Nexcelom Bioscience). The peritoneal cell count was adjusted to […] cells/mL in Assay Buffer. Rat peritoneal cells were kept at room temperature before and during the assay.
For the 10-point assay, 3-fold serial dilutions were prepared for each test compound in 100% DMSO in 96-well plates (Greiner Bio One, Ref#651261)—from 100 μM down to […]. For the 3-point assay, 10-fold serial dilutions were prepared in 100% DMSO at 100 μM, 10 μM and 1 μM concentrations. From this plate, 5 μL of compound were transferred to a new plate containing 45 μL Assay Buffer to generate a compound plate with 10× final concentrations in 10% DMSO with Assay Buffer. In the final plates, column 11 contained 1% DMSO for the low-histamine-releasing control.
Suspensions of the rat peritoneal cells (90 μL of 2.75×10^5 cells/mL; →25,000 cells per well) were introduced into each well of a new 96-well microtiter plate (Greiner Bio One, Ref#651261) and 10 μL aliquots of the serially diluted compounds were transferred to the cells in each well. The microtiter plate was incubated for 30 min at room temperature. Following incubation cells were spun down (500 rpm, 7 min) and supernatants were collected for further analysis. Supernatants were diluted 6 times with the assay buffer (15 μL to 75 μL, for 90 μL total) and released histamine content was determined using HTRF® Histamine assay kit (CisBio, cat#62HTMPEB). To measure the total histamine in each well, cells were lysed by addition of 15 μL 5% TritonX-100 to each well followed by incubation for 15 minutes. The plates were then spun at 3000 rpm for 5 minutes, and 10 μL of supernatant were diluted 9-fold in assay buffer (10 μL to 80 μL for 90 μL total) to make the “total” histamine plate. Histamine content was measured as described above for the “released” histamine values.
The standard positive control was Compound 48/80 (Enzo Life Sciences), a oligomeric polymer mixture produced by the condensation of N-methyl-p-methoxyphenethylamine with formaldehyde. The trimer is the most abundant in the mixture Compound 48/80 is used to promote mast cell degranulation and activates G proteins by a mechanism analogous to that of mastoparan. […] See references: T. Higashijima et al., J. Biol., Chem., 265 14176 (1990); M. Mousli et al., FEBS Lett., 259 260 (1990); K. Gietzen et al., Biochim. Biophys. Acta, 736 109 (1983); K. Gietzen, Biochem. J., 1983 216 611 and C. Bronner et al., Biochim. Biophys. Acta, 920 301(1987).

[2] = EC50 (cAMP inhibition, hAPJ HEK), Table 6, hAPJ HEK cells, NKH477-stimulated cAMP
[3] = HTRF cAMP Assay, per data of Table 6
[4] = HTRF cAMP Assay, per data of Table 6, read-out: EC50 (hAPJ), inhibition of cAMP production, bound stated
[5] = Table 6, hAPJ HEK cells, NKH477-stimulated cAMP, read-out: EC50 (cAMP inhibition, hAPJ HEK)

CCCCCCCCCCCCCCCC(=O)N[C@H](C(=O)N[C@H](C(=O)N1CCC[C@H]1C(=O)N[C@@H](Cc1ccccc1)C(=O)N[C@@H](CCCNC(=N)N)C(=O)N[C@@H](CO)C(=O)N[C@@H](CO)C(=O)N[C@@H](CCC(=O)O)C(=O)N1CCC[C@H]1C(=O)N[C@H](CCCCN)C(=O)N[C@@H](CCCNC(=N)N)C(=O)N[C@@H](CCCNC(=N)N)C(=O)N[C@@H](CO)C(=O)N[C@@H](C)C(=O)N[C@@H](CC(=O)O)C(=O)N[C@H](C(=O)N[C@@H](Cc1ccccc1)C(=O)N[C@H](C(N)=O)[C@@H](C)CC)[C@@H](C)CC)C(C)C)[C@@H](C)O [Compound 1] (HELM PEPTIDE1{[CCCCCCCCCCCCCCCC(=O)[*:2]].T.V.P.F.R.S.S.E.P.[dK].R.R.S.A.D.I.F.I.[am]}$$$$V2.0)
EC50 [1, 2]: 4 nM | % IA (cAMP inhibition, hAPJ HEK) ([1]; Table 6, hAPJ HEK cells): 57% | Ranking [1]: ** (EC50 25-50 nM (hAPJ), % IA 50-79% and either % histamine>35% or formal (+) charge>1) | Histamine (% vs. 48/80) (rat peritoneal cells): 53%

CCCCCCCCCCCCCCCC(=O)N[C@H](C(=O)N1CCC[C@H]1C(=O)N[C@H](C(=O)N[C@@H](Cc1ccccc1)C(=O)N[C@@H](CCCNC(=N)N)C(=O)N[C@@H](CO)C(=O)N[C@@H](CO)C(=O)N1CCC[C@H]1C(=O)N[C@@H](CCC(=O)O)C(=O)N[C@H](CCCCN)C(=O)N[C@@H](CCCNC(=N)N)C(=O)N[C@@H](CCCNC(=N)N)C(=O)N[C@@H](CO)C(=O)N[C@@H](C)C(=O)N[C@@H](CC(=O)O)C(=O)N[C@H](C(=O)N[C@@H](Cc1ccccc1)C(=O)N[C@H](C(N)=O)[C@@H](C)CC)[C@@H](C)CC)C(C)C)[C@@H](C)O [Compound 2] (HELM PEPTIDE1{[CCCCCCCCCCCCCCCC(=O)[*:2]].T.P.V.F.R.S.S.P.E.[dK].R.R.S.A.D.I.F.I.[am]}$$$$V2.0)
EC50 [1, 2]: 4 nM | % IA (cAMP inhibition, hAPJ HEK) ([1]; Table 6, hAPJ HEK cells): 60% | Ranking [1]: ** (EC50 25-50 nM (hAPJ), % IA 50-79% and either % histamine>35% or formal (+) charge>1) | Histamine (% vs. 48/80) (rat peritoneal cells): 49%

CCCCCCCCCCCCCCCC(=O)N[C@H](C(=O)N[C@H](C(=O)N[C@@H](CC(=O)O)C(=O)N[C@@H](CCCNC(=N)N)C(=O)N[C@@H](CO)C(=O)N[C@@H](CO)C(=O)N[C@@H](CCC(=O)O)C(=O)N[C@H](CCCCN)C(=O)N[C@@H](CCCNC(=N)N)C(=O)N[C@@H](CCCNC(=N)N)C(=O)N[C@@H](CO)C(=O)N[C@@H](C)C(=O)N[C@@H](CC(=O)O)C(=O)N[C@@H](Cc1ccc(F)cc1)C(=O)N[C@@H](Cc1ccccc1)C(=O)N[C@H](C(N)=O)[C@@H](C)CC)C(C)C)[C@@H](C)O [Compound 33, TVDRSSEkRRSAD(p-fluoro-Phe)FI] (HELM PEPTIDE1{[CCCCCCCCCCCCCCCC(=O)[*:2]].T.V.D.R.S.S.E.[dK].R.R.S.A.D.[O=C([C@H](Cc1ccc(F)cc1)N[*:1])[*:2]].F.I.[am]}$$$$V2.0)
Emax [1, 3]: 50 to 79% | EC50 [1, 4]: 25 to 50 nM | EC50 [1, 5]: 30 nM | % IA (cAMP inhibition, hAPJ HEK) ([1]; Table 6, hAPJ HEK cells): 80% | Ranking [1]: *** (EC50 25-50 nM (hAPJ), % IA 50-79% and either % histamine≦35% or formal (+) charge≦1)

CCCCCCCCCCCCCCCC(=O)N[C@H](C(=O)N[C@H](C(=O)N[C@@H](CC(=O)O)C(=O)N[C@@H](CCCNC(=N)N)C(=O)N[C@@H](CO)C(=O)N[C@@H](CO)C(=O)N[C@@H](CCC(=O)O)C(=O)N[C@H](CCCCN)C(=O)N[C@@H](CCCNC(=N)N)C(=O)N[C@@H](CCCNC(=N)N)C(=O)N[C@@H](CO)C(=O)N[C@@H](C)C(=O)N[C@@H](CC(=O)O)C(=O)N[C@@H](Cc1ccc(CN)cc1)C(=O)N[C@@H](Cc1ccccc1)C(=O)N[C@H](C(N)=O)[C@@H](C)CC)C(C)C)[C@@H](C)O [Compound 34, TVDRSSEkRRSAD(p-CH2NH2-Phe)FI] (HELM PEPTIDE1{[CCCCCCCCCCCCCCCC(=O)[*:2]].T.V.D.R.S.S.E.[dK].R.R.S.A.D.[NCc1ccc(C[C@H](N[*:1])C(=O)[*:2])cc1].F.I.[am]}$$$$V2.0)
Emax [1, 3]: 50 to 79% | EC50 [1, 4]: 25 to 50 nM | EC50 [1, 5]: 30 nM | % IA (cAMP inhibition, hAPJ HEK) ([1]; Table 6, hAPJ HEK cells): 104% | Ranking [1]: *** (EC50 25-50 nM (hAPJ), % IA 50-79% and either % histamine≦35% or formal (+) charge≦1)

CCCCCCCCCCCCCCCC(=O)N[C@@H](CC(=O)O)C(=O)N[C@H](C(=O)N[C@@H](Cc1c[nH]cn1)C(=O)N[C@@H](CCCNC(=N)N)C(=O)N[C@@H](CO)C(=O)N[C@@H](CO)C(=O)N[C@@H](CCC(=O)O)C(=O)N[C@H](CCCCN)C(=O)N[C@@H](CCCNC(=N)N)C(=O)N[C@@H](CCCNC(=N)N)C(=O)N[C@@H](CO)C(=O)N[C@@H](C)C(=O)N[C@@H](CC(=O)O)C(=O)N[C@H](C(=O)N[C@@H](Cc1ccccc1)C(=O)N[C@H](C(N)=O)[C@@H](C)CC)[C@@H](C)CC)C(C)C [Compound 35] (HELM PEPTIDE1{[CCCCCCCCCCCCCCCC(=O)[*:2]].D.V.H.R.S.S.E.[dK].R.R.S.A.D.I.F.I.[am]}$$$$V2.0)
EC50 [1, 2]: 32 nM | EC50 ([1]; EC50 (hAPJ), inhibition of cAMP production, bound stated, HTRF cAMP Assay, per data of Table 6): 25 to 50 nM | Emax [1, 3]: 50 to 79% | % IA (cAMP inhibition, hAPJ HEK) ([1]; Table 6, hAPJ HEK cells): 90% | Ranking [1]: *** (EC50 25-50 nM (hAPJ), % IA 50-79% and either % histamine≦35% or formal (+) charge≦1)

CCCCCCCCCCCCCCCC(=O)N[C@@H](CC(=O)O)C(=O)N[C@H](C(=O)N[C@@H](Cc1c[nH]cn1)C(=O)N[C@@H](CCCNC(=N)N)C(=O)N[C@@H](CO)C(=O)N[C@@H](CO)C(=O)N[C@@H](CCC(=O)O)C(=O)N[C@H](CCCCN)C(=O)N[C@@H](CCCNC(=N)N)C(=O)N[C@@H](CCCNC(=N)N)C(=O)N[C@@H](CO)C(=O)N[C@@H](C)C(=O)N[C@@H](CC(=O)O)C(=O)N[C@@H](CCC(N)=O)C(=O)N[C@@H](Cc1ccccc1)C(=O)N[C@H](C(N)=O)[C@@H](C)CC)C(C)C [Compound 36] (HELM PEPTIDE1{[CCCCCCCCCCCCCCCC(=O)[*:2]].D.V.H.R.S.S.E.[dK].R.R.S.A.D.Q.F.I.[am]}$$$$V2.0)
Emax [1, 3]: ≥ 80% | EC50 [1, 4]: ≤ 25 nM | EC50 [1, 5]: 2 nM | % IA (cAMP inhibition, hAPJ HEK) ([1]; Table 6, hAPJ HEK cells): 101% | Ranking [1]: ***** (EC50≦25 nM (hAPJ), % IA≧80% and either % histamine≦35% or formal (+) charge≦1) | inhibition of NKH477-stimulated increase in cAMP, dose dependent ([1]; concentration response curves, FIGS. 1 and 2, HEK cells stably expressing APJ): inhibited
